Data published in patent US5262417A, “Antibacterial quinolone compounds” (The Upjohn Company, priority 1991, dated 1993).
Values after ≈ are worked out from the molar mass of the structure shown. Like-named read-outs stand apart in the source and are kept apart here.

Legend:
Experiment in all cases: Minimum inhibitory concentration (MIC) by agar dilution
Type in all cases: cell-based
[1] = test system: Enterobacter cloacae; conditions: 20 h, read-out: MINIMUM INHIBITORY CONCENTRATION
Protocol: (§1) Briefly, MIC values are determined in unsupplemented Mueller Hinton Agar (MHA). The compounds tested are diluted serially into molten MHA at 47° C. The agar is poured into petri dishes and allowed to harden. The various bacteria used for testing are grown overnight on MHA at 35° C. and transferred to Trypticase soy broth (TSB) until a turbidity of 0.5 McFarland standard is obtained. The bacteria are diluted one to 20 in TSB and inoculated on the plates (1 μl using a Steers replicator).
as §1, with “Compounds of this invention can also be tested for in vitro antimicrobial activity using standard testing procedures such as the determination of minimum inhibitory concentration (MIC) by agar dilution as described in "Methods for Dilution Antimicrobial Susceptibility Tests for Bacteria That Grow Aerobically" (MFT) published Jan. […] Briefly,” for “Briefly,”, “(1μl” for “(1 μl”

[2] = test system: Escherichia coli; conditions: Escherichia coli, 20 h
Protocol: as §1, with “The antibacterial activity of the compounds of Formula IC was determined by using standard testing procedures such as the determination of minimum inhibitory concentration (MIC) by agar dilution as described in "Methods for Dilution Antimicrobial Susceptibility Tests for Bacteria That Grow Aerobically" (MFT) published January 1983 by the National Committee for Clinical Laboratory Standards, 771 East Lancaster Avenue, Villanova, Pa. 19084, USA. Briefly,” for “Briefly,”
(§2) Compounds of this invention can also be tested for in vitro antimicrobial activity using standard testing procedures such as the determination of minimum inhibitory concentration (MIC) by agar dilution as described in "Methods for Dilution Antimicrobial Susceptibility Tests for Bacteria That Grow Aerobically" (MFT) published Jan. 1983 by the National Committee for Clinical Laboratory Standards, 771 East Lancaster Avenue, Villanova, Penna. 19084, USA. Briefly, MIC values are determined in unsupplemented Mueller Hinton Agar (MHA). The compounds tested are diluted serially into molten MHA at 47° C. The agar is poured into petri dishes and allowed to harden. The various bacteria used for testing are grown overnight on MHA at 35° C. and transferred to Trypticase soy broth (TSB) until a turbidity of 0.5 McFarland standard is obtained. The bacteria are diluted one to 20 in TSB and inoculated on the plates (1μl using a Steers replicator). […] The MIC test results of selected of Formula B compounds of this invention are found in Tables B2-B9.

[3] = test system: Proteus penneri; conditions: Proteus penneri, 20 h, read-out: MINIMUM INHIBITORY CONCENTRATION, Cult No. 9679, MHA
Protocol: (§3) The antibacterial activity of the compounds of Formula IC was determined by using standard testing procedures such as the determination of minimum inhibitory concentration (MIC) by agar dilution as described in "Methods for Dilution Antimicrobial Susceptibility Tests for Bacteria That Grow Aerobically" (MFT) published January 1983 by the National Committee for Clinical Laboratory Standards, 771 East Lancaster Avenue, Villanova, Pa. 19084, USA. Briefly, MIC values are determined in unsupplemented Mueller Hinton Agar (MHA). The compounds tested are diluted serially into molten MHA at 47° C. The agar is poured into petri dishes and allowed to harden. The various bacteria used for testing are grown overnight on MHA at 35° C. and transferred to Trypticase soy broth (TSB) until a turbidity of 0.5 McFarland standard is obtained. The bacteria are diluted one to 20 in TSB and inoculated on the plates (1 μl using a Steers replicator).
as §2

[4] = test system: Streptococcus faecalis; conditions: Enterococcus faecalis, 20 h, read-out: MINIMUM INHIBITORY CONCENTRATION
Protocol: as §3, §2

[5] = test system: Acinetobacter calcoaceticus; conditions: Acinetobacter calcoaceticus, 20 h, read-out: MINIMUM INHIBITORY CONCENTRATION, Cult No. 12170, MHA
Protocol: as §3, §2

[6] = test system: Klebsiella pneumoniae; conditions: 20 h, read-out: MINIMUM INHIBITORY CONCENTRATION
Protocol: as §3, §2

[7] = test system: Pseudomonas aeruginosa; conditions: Pseudomonas aeruginosa, 20 h
Protocol: as §3, §2

[8] = test system: Streptococcus pyogenes; conditions: Streptococcus pyogenes, 20 h, read-out: MINIMUM INHIBITORY CONCENTRATION, Cult No. 152, MHA
Protocol: as §3, §2

[9] = test system: Staphylococcus epidermidis; conditions: 20 h, read-out: MINIMUM INHIBITORY CONCENTRATION
Protocol: as §3, §2

[10] = test system: Serratia marcescens; conditions: 20 h, read-out: MINIMUM INHIBITORY CONCENTRATION
Protocol: as §3, §2

[11] = test system: Streptococcus pneumoniae; conditions: Streptococcus pneumoniae, 20 h, read-out: MINIMUM INHIBITORY CONCENTRATION, Cult No. 41, MHA
Protocol: as §3, §2

[12] = test system: Citerobacter freundii; conditions: 20 h, read-out: MINIMUM INHIBITORY CONCENTRATION
Protocol: as §3, §2

[13] = test system: Staphylococcus aureus; conditions: Staphylococcus aureus, 20 h
Protocol: as §3, §2

[14] = read-out: MINIMUM INHIBITORY CONCENTRATION, Cult No. 6674, MHA
[15] = read-out: MINIMUM INHIBITORY CONCENTRATION, Cult No. 9451, MHA
[16] = read-out: MINIMUM INHIBITORY CONCENTRATION, Cult No. 9855, MHA
[17] = read-out: MINIMUM INHIBITORY CONCENTRATION, Cult No. 9952, MHA
[18] = read-out: MINIMUM INHIBITORY CONCENTRATION, Cult No. 6676, MHA
[19] = read-out: MINIMUM INHIBITORY CONCENTRATION, Cult No. 9191, MHA
[20] = read-out: MINIMUM INHIBITORY CONCENTRATION, Cult No. 12120, MHA
[21] = read-out: MINIMUM INHIBITORY CONCENTRATION, Cult No. 6685, MHA
[22] = read-out: MINIMUM INHIBITORY CONCENTRATION, Cult No. 9213, MHA
[23] = read-out: MINIMUM INHIBITORY CONCENTRATION, Cult No. 9218, MHA
[24] = read-out: MINIMUM INHIBITORY CONCENTRATION, Cult No. 9271, MHA

CN1CCN(c2c(F)cc3c(=O)c(C(=O)O)cn(C45CC(C4)C5)c3c2F)CC1 [No. 99, 7-(4-methyl-1-piperazinyl)-1-(bicyclo[1.1.1]pent-1-yl)-1,4-dihydro-6,8-difluoro-4-oxo-3-quinolinecarboxylic acid]
MIC [1]: 0.25 µg/mL (≈ 0.642 µM) | MIC [2, 14]: 0.25 µg/mL (≈ 0.642 µM) | MIC [2, 15]: 0.255 µg/mL (≈ 0.655 µM) | MIC [2, 16]: 0.25 µg/mL (≈ 0.642 µM) | MIC [2, 17]: 0.125 µg/mL (≈ 0.321 µM) | MIC [3]: 2 µg/mL (≈ 5.14 µM) | MIC [4]: 4 µg/mL (≈ 10.3 µM) | MIC [5]: 0.125 µg/mL (≈ 0.321 µM) | MIC [6]: 0.5 µg/mL (≈ 1.28 µM) | MIC [7, 18]: 4 µg/mL (≈ 10.3 µM) | MIC [7, 19]: 4 µg/mL (≈ 10.3 µM) | MIC [7, 20]: 2 µg/mL (≈ 5.14 µM) | MIC [8]: 2 µg/mL (≈ 5.14 µM) | MIC [9]: 0.5 µg/mL (≈ 1.28 µM) | MIC [10]: 1 µg/mL (≈ 2.57 µM) | MIC [11]: 2 µg/mL (≈ 5.14 µM) | MIC [12]: 0.25 µg/mL (≈ 0.642 µM) | MIC [13, 21]: 0.5 µg/mL (≈ 1.28 µM) | MIC [13, 22]: 0.5 µg/mL (≈ 1.28 µM) | MIC [13, 23]: 0.5 µg/mL (≈ 1.28 µM) | MIC [13, 24]: 0.5 µg/mL (≈ 1.28 µM)

O=C(O)c1cn(C23CC(C2)C3)c2cc(N3CCNCC3)c(F)cc2c1=O [No. 2, 1-(bicyclo[1.1.1]pent-1-yl)-1,4-dihydro-6-fluoro-4-oxo-7-(1-piperazinyl)-3-quinolinecarboxylic acid]
MIC [1]: 0.125 µg/mL (≈ 0.35 µM) | MIC [2, 14]: 0.125 µg/mL (≈ 0.35 µM) | MIC [2, 15]: 0.125 µg/mL (≈ 0.35 µM) | MIC [2, 16]: 0.125 µg/mL (≈ 0.35 µM) | MIC [2, 17]: 0.125 µg/mL (≈ 0.35 µM) | MIC [3]: 0.5 µg/mL (≈ 1.4 µM) | MIC [4]: 4 µg/mL (≈ 11.2 µM) | MIC [5]: 0.5 µg/mL (≈ 1.4 µM) | MIC [6]: 0.25 µg/mL (≈ 0.7 µM) | MIC [7, 18]: 4 µg/mL (≈ 11.2 µM) | MIC [7, 19]: 2 µg/mL (≈ 5.6 µM) | MIC [7, 20]: 1 µg/mL (≈ 2.8 µM) | MIC [8]: 2 µg/mL (≈ 5.6 µM) | MIC [9]: 0.5 µg/mL (≈ 1.4 µM) | MIC [10]: 0.5 µg/mL (≈ 1.4 µM) | MIC [11]: 4 µg/mL (≈ 11.2 µM) | MIC [12]: 0.06 µg/mL (≈ 0.168 µM) | MIC [13, 21]: 0.5 µg/mL (≈ 1.4 µM) | MIC [13, 22]: 1 µg/mL (≈ 2.8 µM) | MIC [13, 23]: 1 µg/mL (≈ 2.8 µM) | MIC [13, 24]: 1 µg/mL (≈ 2.8 µM)
